These results are taken from patent US20230265151A1, “GIP/GLP1 CO-AGONIST COMPOUNDS” (priority 2020, published 2023).

Holding throughout (format): cell-based
The target in one assay is T1, hGIPR (Homo sapiens, UniProt P48546).
T1 construct: expressed in transfected cells
T1 sequence (P48546 22-466): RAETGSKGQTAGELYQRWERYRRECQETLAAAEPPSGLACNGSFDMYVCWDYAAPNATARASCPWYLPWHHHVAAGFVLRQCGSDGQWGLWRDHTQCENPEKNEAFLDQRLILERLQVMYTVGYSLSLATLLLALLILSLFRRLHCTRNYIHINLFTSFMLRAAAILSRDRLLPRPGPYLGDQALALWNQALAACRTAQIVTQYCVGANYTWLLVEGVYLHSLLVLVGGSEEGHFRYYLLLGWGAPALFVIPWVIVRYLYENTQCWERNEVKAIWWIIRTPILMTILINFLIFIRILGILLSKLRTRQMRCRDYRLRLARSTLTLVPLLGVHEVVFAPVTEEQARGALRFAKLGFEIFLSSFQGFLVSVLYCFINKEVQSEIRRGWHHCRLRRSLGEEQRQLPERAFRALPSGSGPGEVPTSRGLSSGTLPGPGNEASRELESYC
Put plainly: Functional cAMP formation (HTRF) in HEK-293 clonal cells expressing hGIPR, 0.1% bovine casein, without or with 1.0% human serum albumin. Particulars: for EC50: geometric mean. The gist of the method: (§1)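 Cells were stimulated with peptide for 30 min at 37° C, then lysed in buffer carrying cAMP-d2 and anti-cAMP Eu3+-cryptate for a competitive HTRF read after at least 60 min at room temperature. The 665/620 nm ratio was converted to nM cAMP against a standard curve.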
(Cyclic AMP is a second messenger, typically raised through Gs and lowered through Gi signalling.)

A further assay deals with T2, hGCGR (Homo sapiens, UniProt P47871).
T2 construct: expressed in transfected cells
T2 sequence (P47871 26-477): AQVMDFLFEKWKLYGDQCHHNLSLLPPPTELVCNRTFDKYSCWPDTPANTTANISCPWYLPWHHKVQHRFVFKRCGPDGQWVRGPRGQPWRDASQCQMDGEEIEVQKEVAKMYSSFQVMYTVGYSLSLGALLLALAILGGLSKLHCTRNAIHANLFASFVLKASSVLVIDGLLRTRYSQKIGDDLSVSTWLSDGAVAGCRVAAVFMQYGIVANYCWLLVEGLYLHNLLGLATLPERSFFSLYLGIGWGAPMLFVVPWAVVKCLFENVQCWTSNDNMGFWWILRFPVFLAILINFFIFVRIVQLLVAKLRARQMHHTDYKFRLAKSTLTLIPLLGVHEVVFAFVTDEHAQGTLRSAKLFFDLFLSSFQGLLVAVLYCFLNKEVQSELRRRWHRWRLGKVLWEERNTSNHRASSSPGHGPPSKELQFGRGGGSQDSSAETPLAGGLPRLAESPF
Put plainly: Functional cAMP formation (HTRF) in HEK-293 clonal cells expressing hGCGR, 0.1% bovine casein, without or with 1.0% human serum albumin. The essentials: as §1

Another assay has as its target hGLP-1R (Homo sapiens, UniProt P43220). Put plainly: Functional cAMP formation (HTRF) in HEK-293 clonal cells expressing hGLP-1R, 0.1% bovine casein, without or with 1.0% human serum albumin. Set-up: expressed in transfected cells. Particulars: for EC50: cAMP, 0.1% bovine casein (no human serum albumin), geometric mean. The gist of the method:
as §1

Setting [1] is: HEK293, percent of maximal response to GIP(1-42)NH2, 37° C., 0.1% bovine casein, arithmetic mean, read-out: hGIPR Emax, % ± SEM.
The mark [2] stands for this setting: cAMP, incubated at 37° C., 0.1% bovine casein (no human serum albumin), geometric mean, read-out: hGCGR EC50, nM (SEM, n).
[3] abbreviates: HEK293, percent of maximal response to GLP-1(7-36)NH2, 37° C., 0.1% bovine casein, arithmetic mean, read-out: hGLP-1R Emax, % ± SEM.

Where two headings read alike, the source gives them in different places. Bounds are passed on as bounds.

Chain of hGLP-1R (P43220 24-463): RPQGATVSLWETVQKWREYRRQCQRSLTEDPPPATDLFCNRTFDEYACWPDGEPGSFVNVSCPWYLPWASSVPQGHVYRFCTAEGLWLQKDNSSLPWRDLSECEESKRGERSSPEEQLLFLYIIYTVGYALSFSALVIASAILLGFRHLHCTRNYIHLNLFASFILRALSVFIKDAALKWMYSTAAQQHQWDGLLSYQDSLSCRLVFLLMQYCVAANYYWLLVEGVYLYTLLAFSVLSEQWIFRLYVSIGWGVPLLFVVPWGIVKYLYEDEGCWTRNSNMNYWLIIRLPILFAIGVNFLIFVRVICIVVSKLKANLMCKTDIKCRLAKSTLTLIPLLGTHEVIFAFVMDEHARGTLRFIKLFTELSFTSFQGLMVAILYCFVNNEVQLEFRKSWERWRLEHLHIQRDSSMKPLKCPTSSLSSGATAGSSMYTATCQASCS

As for `CC[C@H](C)[C@H](NC(=O)[C@H](CCCN)NC(=O)[C@H](CC(=O)O)NC(=O)[C@H](CC(C)C)NC(=O)[C@](C)(CC(C)C)NC(=O)[C@@H](NC(=O)C(C)(C)NC(=O)[C@@H](NC(=O)[C@H](CC(=O)O)NC(=O)[C@H](CO)NC(=O)[C@@H](NC(=O)[C@](C)(Cc1ccccc1F)NC(=O)[C@@H](NC(=O)CNC(=O)[C@H](CCC(=O)O)NC(=O)C(C)(C)NC(=O)[C@@H](N)Cc1ccc(O)cc1)[C@@H](C)O)[C@@H](C)O)C(C)C)[C@@H](C)CC)C(=O)N[C@@H](C)C(=O)N[C@@H](CCC(N)=O)C(=O)NC(C)(C)C(=O)N[C@@H](CCC(=O)O)C(=O)N[C@@H](Cc1ccccc1)C(=O)N[C@H](C(=O)N[C@@H](CCCCNC(=O)COCCOCCNC(=O)CC[C@H](NC(=O)CCCCCCCCCCCCC(=O)O)C(=O)O)C(=O)N[C@@](C)(Cc1ccc(O)cc1)C(=O)N[C@@H](CC(C)C)C(=O)N[C@H](C(=O)N[C@@H](CCCCNC(=O)COCCOCCNC(=O)CC[C@H](NC(=O)CCCCCCCCCCCCC(=O)O)C(=O)O)C(=O)NCC(=O)NCC(=O)N1CCC[C@H]1C(=O)N[C@@H](CO)C(=O)N[C@@H](CO)C(=O)NCC(=O)N[C@@H](C)C(=O)N1CCC[C@H]1C(=O)N1CCC[C@H]1C(=O)N1CCC[C@H]1C(=O)N[C@@H](CO)C(N)=O)[C@@H](C)CC)[C@@H](C)CC` [Example 400], the Emax at hGIPR (HEK293, cAMP, 37° C., 0.1% bovine casein and 1.0% human serum albumin, percent of maximal response to GIP(1-42)NH2, read-out: hGIPR Emax, % ± SEM) came to 83.2%; at hGIPR (HEK293, cAMP, 37° C., 0.1% bovine casein, percent of maximal response to GIP(1-42)NH2, arithmetic mean, read-out: hGIPR Emax, % ± SEM), 98.1%; at hGLP-1R (HEK293, cAMP, 37° C., 0.1% bovine casein and 1.0% human serum albumin, percent of maximal response to GLP-1(7-36)NH2, read-out: hGLP-1R Emax, % ± SEM), 109%. The EC50 on hGIPR (cAMP, 37° C., 0.1% bovine casein (no human serum albumin), read-out: hGIPR EC50, nM (SEM, n)) is 0.0821 nM; at hGCGR (cAMP, 37° C., 0.1% bovine casein (no human serum albumin), geometric mean, read-out: hGCGR EC50, nM (SEM, n)), greater than 9950 nM; at hGCGR (cAMP, 37° C., 0.1% bovine casein and 1.0% human serum albumin, geometric mean (SEM, n), read-out: hGCGR EC50, nM (SEM, n)), greater than 9950 nM; on hGLP-1R (37° C., read-out: hGLP-1R EC50, nM (SEM, n)) it was 0.708 nM.
Regarding `CC[C@H](C)[C@H](NC(=O)[C@H](CC(C)C)NC(=O)[C@](C)(Cc1ccc(O)cc1)NC(=O)[C@@H](CCC(=O)O)NC(=O)[C@@H](NC(=O)[C@H](Cc1ccccc1)NC(=O)[C@H](CCC(=O)O)NC(=O)C(C)(C)NC(=O)[C@H](CCC(N)=O)NC(=O)[C@H](C)NC(=O)[C@H](CCCCNC(=O)[C@@H](N)CCCCNC(=O)[C@@H](N)CCCCNC(=O)CC[C@H](NC(=O)CCCCCCCCCCCCC(=O)O)C(=O)O)NC(=O)[C@H](CCCN)NC(=O)[C@H](CC(=O)O)NC(=O)[C@H](CC(C)C)NC(=O)[C@](C)(CC(C)C)NC(=O)[C@@H](NC(=O)C(C)(C)NC(=O)[C@@H](NC(=O)[C@H](CC(=O)O)NC(=O)[C@H](CO)NC(=O)[C@@H](NC(=O)[C@](C)(Cc1ccccc1F)NC(=O)[C@@H](NC(=O)CNC(=O)[C@H](CCC(=O)O)NC(=O)C(C)(C)NC(=O)[C@@H](N)Cc1ccc(O)cc1)[C@@H](C)O)[C@@H](C)O)C(C)C)[C@@H](C)CC)[C@@H](C)CC)C(=O)N[C@@H](CCC(=O)O)C(=O)NCC(=O)NCC(=O)N[C@@H](CCCCNC(=O)[C@@H](N)CCCCNC(=O)[C@@H](N)CCCCNC(=O)CC[C@H](NC(=O)CCCCCCCCCCCCC(=O)O)C(=O)O)C(=O)N[C@@H](CO)C(=O)N[C@@H](CO)C(=O)NCC(=O)N[C@@H](C)C(=O)N1CCC[C@H]1C(=O)N1CCC[C@H]1C(=O)N1CCC[C@H]1C(=O)N[C@@H](CO)C(N)=O` [Example 165], the figures for the Emax at hGIPR (setting [1]) and at hGLP-1R (setting [3]) were 96.1% and 94.3%, respectively. Besides, the EC50 on hGCGR (setting [2]) is greater than 9950 nM; at hGLP-1R (incubated at 37° C., read-out: hGLP-1R EC50, nM (SEM, n)), 0.291 nM.
For the molecule `CC[C@H](C)[C@H](NC(=O)[C@H](CC(C)C)NC(=O)[C@](C)(Cc1ccc(O)cc1)NC(=O)[C@@H](CCC(=O)O)NC(=O)[C@@H](NC(=O)[C@H](Cc1ccccc1)NC(=O)[C@H](CCCN)NC(=O)C(C)(C)NC(=O)[C@H](CCC(N)=O)NC(=O)[C@H](C)NC(=O)[C@H](CCCCNC(=O)COCCOCCNC(=O)COCCOCCNC(=O)CC[C@H](NC(=O)CCCCCCCCCOc1ccc(C(=O)O)cc1)C(=O)O)NC(=O)[C@H](CCCN)NC(=O)[C@H](CC(=O)O)NC(=O)[C@H](CC(C)C)NC(=O)[C@](C)(CC(C)C)NC(=O)[C@@H](NC(=O)C(C)(C)NC(=O)[C@@H](NC(=O)[C@H](CC(=O)O)NC(=O)[C@H](CO)NC(=O)[C@@H](NC(=O)[C@](C)(Cc1ccccc1F)NC(=O)[C@@H](NC(=O)CNC(=O)[C@H](CCC(=O)O)NC(=O)C(C)(C)NC(=O)[C@@H](N)Cc1ccc(O)cc1)[C@@H](C)O)[C@@H](C)O)C(C)C)[C@@H](C)CC)[C@@H](C)CC)C(=O)N[C@@H](CCCCNC(=O)COCCOCCNC(=O)COCCOCCNC(=O)CC[C@H](NC(=O)CCCCCCCCCOc1ccc(C(=O)O)cc1)C(=O)O)C(=O)NCC(=O)NCC(=O)N1CCC[C@H]1C(=O)N[C@@H](CO)C(=O)N[C@@H](CO)C(=O)NCC(=O)N[C@@H](C)C(=O)N1CCC[C@H]1C(=O)N1CCC[C@H]1C(=O)N1CCC[C@H]1C(=O)N[C@@H](CO)C(N)=O` [Example 353], the Emax at hGIPR (HEK293, read-out: hGIPR Emax, % ± SEM, cAMP, 37° C., 0.1% bovine casein and 1.0% human serum albumin, percent of maximal response to GIP(1-42)NH2) was 84.8%; on hGIPR (HEK293, read-out: hGIPR Emax, % ± SEM, cAMP, 37° C., 0.1% bovine casein, percent of maximal response to GIP(1-42)NH2, arithmetic mean), 98.2%; at hGLP-1R (HEK293, read-out: hGLP-1R Emax, % ± SEM, cAMP, 37° C., 0.1% bovine casein and 1.0% human serum albumin, percent of maximal response to GLP-1(7-36)NH2), 92.5%; on hGLP-1R (HEK293, read-out: hGLP-1R Emax, % ± SEM, cAMP, 37° C., 0.1% bovine casein, percent of maximal response to GLP-1(7-36)NH2, arithmetic mean), 98%. In addition, the 50% effective concentration (EC50) on hGIPR (hGIPR EC50, nM (SEM, n), cAMP, 37° C., 0.1% bovine casein (no human serum albumin)) was 0.0249 nM; at hGCGR (hGCGR EC50, nM (SEM, n), cAMP, 37° C., 0.1% bovine casein (no human serum albumin), geometric mean), greater than 9950 nM; at hGCGR (hGCGR EC50, nM (SEM, n), cAMP, 37° C., 0.1% bovine casein and 1.0% human serum albumin, geometric mean (SEM, n)), greater than 9950 nM; at hGLP-1R (hGLP-1R EC50, nM (SEM, n), 37° C.), 0.203 nM.
Consider `CC[C@H](C)[C@H](NC(=O)[C@H](CC(C)C)NC(=O)[C@](C)(Cc1ccc(O)cc1)NC(=O)[C@@H](CCC(=O)O)NC(=O)[C@@H](NC(=O)[C@H](Cc1ccccc1)NC(=O)[C@H](CCC(=O)O)NC(=O)C(C)(C)NC(=O)[C@H](CCC(N)=O)NC(=O)[C@H](C)NC(=O)[C@H](CCCCNC(=O)COCCOCCNC(=O)COCCOCCNC(=O)CC[C@H](NC(=O)CCCCCCCCCCCCC(=O)O)C(=O)O)NC(=O)[C@H](CCCN)NC(=O)[C@H](CC(=O)O)NC(=O)[C@H](CC(C)C)NC(=O)[C@](C)(CC(C)C)NC(=O)[C@@H](NC(=O)[C@H](CO)NC(=O)C1(NC(=O)[C@H](CC(=O)O)NC(=O)[C@H](CO)NC(=O)[C@@H](NC(=O)[C@](C)(Cc2ccccc2F)NC(=O)[C@@H](NC(=O)CNC(=O)[C@H](CCC(=O)O)NC(=O)C(C)(C)NC(=O)[C@@H](N)Cc2ccc(O)cc2)[C@@H](C)O)[C@@H](C)O)CCC1)[C@@H](C)CC)[C@@H](C)CC)C(=O)N[C@@H](CCC(=O)O)C(=O)NCC(=O)NCC(=O)N[C@@H](CCCCNC(=O)COCCOCCNC(=O)COCCOCCNC(=O)CC[C@H](NC(=O)CCCCCCCCCCCCC(=O)O)C(=O)O)C(=O)N[C@@H](CO)C(=O)N[C@@H](CO)C(=O)NCC(=O)N[C@@H](C)C(=O)N1CCC[C@H]1C(=O)N1CCC[C@H]1C(=O)N1CCC[C@H]1C(=O)N[C@@H](CO)C(N)=O` [Example 95], for which the EC50 on hGIPR (0.1% bovine casein and 1.0% human serum albumin, 37° C., read-out: hGIPR EC50, nM (SEM, n)) is 4.68 nM; on hGCGR (0.1% bovine casein and 1.0% human serum albumin, 37° C., geometric mean, read-out: hGCGR EC50, nM (SEM, n)) it was greater than 9950 nM; at hGCGR (setting [2]) it was greater than 9950 nM. Moreover, the Emax on hGIPR (HEK293, 0.1% bovine casein and 1.0% human serum albumin, 37° C., percent of maximal response to GIP(1-42)NH2, read-out: hGIPR Emax, % ± SEM) came to 86.9%; on hGIPR (setting [1]), 97.3%; on hGLP-1R (HEK293, 0.1% bovine casein and 1.0% human serum albumin, 37° C., percent of maximal response to GLP-1(7-36)NH2, read-out: hGLP-1R Emax, % ± SEM), 84%; on hGLP-1R (setting [3]), 86.9%.

The Emax is the greatest response seen or fitted, relative to the assay's reference. A word on the EC50: it is the concentration that produces a half-maximal response.
